This passage reports IC50 results from PMC4488731 (Viruses, 2015).

This assay addresses T1, EV-A71 2A protease (r2A protease) (Enterovirus A71, UniProt B9VUU3).
T1 sequence (B9VUU3 863-1012 limits assumed): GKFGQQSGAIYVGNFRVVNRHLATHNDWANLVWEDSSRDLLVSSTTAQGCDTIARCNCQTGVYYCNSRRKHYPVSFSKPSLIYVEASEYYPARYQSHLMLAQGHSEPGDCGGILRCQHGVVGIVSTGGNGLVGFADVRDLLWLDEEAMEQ
Format: biochemical. As to conditions: 37 °C, 2 h, 5 µg/mL r2A, 10 µg/mL HRP substrate.

As usually defined, the IC50 is the concentration needed to halve the response being measured. High values mean a need for much substance, low ones inhibition by little substance. The molecule `CCOC(=O)C1=C(Nc2cc(C)cc(C)c2)OCC1=O` [CW-33, Ethyl 2-(3′,5′-dimethylanilino)-4-oxo-4,5-dihydrofuran-3-carboxylate] came in with an IC50 of 53.1 µM.
